Literature values as cited in publication PMC6952392, “A combined computational and experimental strategy identifies mutations conferring resistance to drugs targeting the BCR-ABL fusion protein” (Communications Biology, 2020).
Read-outs that look alike come from different tables or passages of the source.

Columns and labels:
[1] = safety window
[2] = system: BCR-ABL

In the case of Cc1cn(-c2cc(NC(=O)c3ccc(C)c(Nc4nccc(-c5cccnc5)n4)c3)cc(C(F)(F)F)c2)cn1 [nilotinib], the “effective safe plasma concentration” value [1] is given as less than 1500 ng/mL.

For Cc1ccc(C(=O)Nc2ccc(CN3CCN(C)CC3)c(C(F)(F)F)c2)cc1C#Cc1cnc2cccnn12 [ponatinib], the “in vitro inhibitory activity” value ([2]; general statement, no reference given) is listed as “sub-nanomolar range”.

In the case of COc1cc(Nc2c(C#N)cnc3cc(OCCCN4CCN(C)CC4)c(OC)cc23)c(Cl)cc1Cl [bosutinib], the “in vitro inhibitory activity” value [2] is given as “sub-nanomolar range”.
